Active and inactive are the calls of the source. How the source made its calls: active means viability on the fitted dose curve at most 10% of control; inactive means the rest.
System: 233499-124-R-J3-PDC complex spheroid viability, % test/control
Test: Anticancer human tumor 233499-124-R-J3-PDC patient-derived colon adenocarcinoma cell line growth inhibition
Details: for IC50: curve of first compound; for viability, T/C: stronger effect = lower value
In short: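 Multicellular complex spheroids of tumor cells with human endothelial cells (HUVEC) and mesenchymal stem cells; the LSD1 inhibitor iadademstat was combined with standard-of-care or investigational agents. Top concentration at or near clinical Cmax, half-log dilutions; final DMSO ≤0.25%.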

[1] = second compound 0.1 µM, first compound 0.0316 µM
[2] = second compound 0.1 µM, first compound 0.1 µM
[3] = second compound 0.1 µM, first compound 0.316 µM
[4] = second compound 0.1 µM, first compound 1 µM
[5] = second compound 0.1 µM, first compound 3.16 µM
[6] = second compound 0.1 µM, first compound 10 µM
[7] = second compound 0.316 µM, first compound 0.0316 µM
[8] = second compound 0.316 µM, first compound 0.1 µM
[9] = second compound 0.316 µM, first compound 0.316 µM
[10] = second compound 0.316 µM, first compound 1 µM
[11] = second compound 0.316 µM, first compound 3.16 µM
[12] = second compound 0.316 µM, first compound 10 µM
[13] = second compound 1 µM, first compound 0.0316 µM
[14] = second compound 1 µM, first compound 0.1 µM
[15] = second compound 1 µM, first compound 0.316 µM
[16] = second compound 1 µM, first compound 1 µM
[17] = second compound 1 µM, first compound 3.16 µM
[18] = second compound 1 µM, first compound 10 µM
[19] = second compound 3.16 µM, first compound 0.0316 µM
[20] = second compound 3.16 µM, first compound 0.1 µM
[21] = second compound 3.16 µM, first compound 0.316 µM
[22] = second compound 3.16 µM, first compound 1 µM
[23] = second compound 3.16 µM, first compound 3.16 µM
[24] = second compound 3.16 µM, first compound 10 µM
[25] = second compound 10 µM, first compound 0.0316 µM
[26] = second compound 10 µM, first compound 0.1 µM
[27] = second compound 10 µM, first compound 0.316 µM
[28] = second compound 10 µM, first compound 1 µM
[29] = second compound 10 µM, first compound 3.16 µM
[30] = second compound 10 µM, first compound 10 µM
[31] = second compound 0.1 µM, first compound 0.00949 µM
[32] = second compound 0.1 µM, first compound 0.03 µM
[33] = second compound 0.1 µM, first compound 0.0949 µM
[34] = second compound 0.1 µM, first compound 0.3 µM
[35] = second compound 0.316 µM, first compound 0.00949 µM
[36] = second compound 0.316 µM, first compound 0.03 µM
[37] = second compound 0.316 µM, first compound 0.0949 µM
[38] = second compound 0.316 µM, first compound 0.3 µM
[39] = second compound 1 µM, first compound 0.00949 µM
[40] = second compound 1 µM, first compound 0.03 µM
[41] = second compound 1 µM, first compound 0.0949 µM
[42] = second compound 1 µM, first compound 0.3 µM
[43] = second compound 3.16 µM, first compound 0.00949 µM
[44] = second compound 3.16 µM, first compound 0.03 µM
[45] = second compound 3.16 µM, first compound 0.0949 µM
[46] = second compound 3.16 µM, first compound 0.3 µM
[47] = second compound 10 µM, first compound 0.00949 µM
[48] = second compound 10 µM, first compound 0.03 µM
[49] = second compound 10 µM, first compound 0.0949 µM
[50] = second compound 10 µM, first compound 0.3 µM
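Wherever IC50 is given: spheroids exposed to agents for one week before readout.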
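Wherever viability, T/C is given: spheroids exposed to agents for one week before readout.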

CC1(C)CCC(CN2CCN(c3ccc(C(=O)NS(=O)(=O)c4ccc(NCC5CCOCC5)c([N+](=O)[O-])c4)c(Oc4cnc5[nH]ccc5c4)c3)CC2)=C(c2ccc(Cl)cc2)C1 + NC1CCC(NC2CC2c2ccccc2)CC1
6.46 µM: IC50 (second compound 0.316 µM)
7.29 µM: IC50 (second compound 10 µM)
inactive: viability, T/C [1] 119% | viability, T/C [2] 127% | viability, T/C [3] 132% | viability, T/C [4] 116% | viability, T/C [5] 143% | viability, T/C [6] 25.2% | viability, T/C [7] 111% | viability, T/C [8] 109% | viability, T/C [9] 114% | viability, T/C [10] 105% | viability, T/C [11] 132% | viability, T/C [12] 10.5% | viability, T/C [13] 95.7% | viability, T/C [14] 91.2% | viability, T/C [15] 97.8% | viability, T/C [16] 104% | viability, T/C [17] 118% | viability, T/C [18] 44.8% | viability, T/C [19] 88.8% | viability, T/C [20] 99.8% | viability, T/C [21] 83% | viability, T/C [22] 98.9% | viability, T/C [23] 96.6% | viability, T/C [24] 36% | viability, T/C [25] 87.4% | viability, T/C [26] 86.5% | viability, T/C [27] 85.2% | viability, T/C [28] 93.1% | viability, T/C [29] 101% | viability, T/C [30] 34.5%
7.56 µM: IC50 (second compound 0.1 µM)
7.55 µM: IC50 (second compound 3.16 µM)
9.01 µM: IC50 (second compound 1 µM)

CC1COCCN1c1cc(C2(S(C)(=N)=O)CC2)nc(-c2ccnc3[nH]ccc23)n1 (stereo not given) + NC1CCC(NC2CC2c2ccccc2)CC1
inactive: viability, T/C [1] 105% | viability, T/C [2] 91.5% | viability, T/C [3] 87.8% | viability, T/C [4] 82.8% | viability, T/C [5] 62.6% | viability, T/C [6] 59.9% | viability, T/C [7] 102% | viability, T/C [8] 98.8% | viability, T/C [9] 95.8% | viability, T/C [10] 100% | viability, T/C [11] 90% | viability, T/C [12] 58.1% | viability, T/C [13] 98.8% | viability, T/C [14] 78.5% | viability, T/C [15] 84.3% | viability, T/C [16] 66.3% | viability, T/C [17] 63.4% | viability, T/C [18] 65% | viability, T/C [19] 79.5% | viability, T/C [20] 92.4% | viability, T/C [21] 80% | viability, T/C [22] 67.8% | viability, T/C [23] 61.7% | viability, T/C [24] 51.6% | viability, T/C [25] 81.4% | viability, T/C [26] 71.3% | viability, T/C [27] 80.9% | viability, T/C [28] 52.5% | viability, T/C [29] 43.9% | viability, T/C [30] 43.3%
1.39 µM: IC50 (second compound 10 µM)
> 10 µM: IC50 (second compound 0.1 µM) | IC50 (second compound 0.316 µM) | IC50 (second compound 1 µM) | IC50 (second compound 3.16 µM)

CCN(c1cc(-c2ccc(CN3CCOCC3)cc2)cc(C(=O)NCc2c(C)cc(C)[nH]c2=O)c1C)C1CCOCC1 + NC1CCC(NC2CC2c2ccccc2)CC1
> 3 µM: IC50 (second compound 0.1 µM) | IC50 (second compound 0.316 µM) | IC50 (second compound 1 µM) | IC50 (second compound 3.16 µM) | IC50 (second compound 10 µM)
inactive: viability, T/C [31] 99.9% | viability, T/C [32] 117% | outcome [33] | viability, T/C [34] 121% | viability, T/C (second compound 0.1 µM, first compound 0.949 µM) 101% | viability, T/C (second compound 0.1 µM, first compound 3 µM) 126% | viability, T/C [35] 101% | viability, T/C [36] 110% | viability, T/C [37] 113% | viability, T/C [38] 102% | viability, T/C (second compound 0.316 µM, first compound 0.949 µM) 118% | viability, T/C (second compound 0.316 µM, first compound 3 µM) 135% | viability, T/C [39] 80.9% | viability, T/C [40] 77.9% | viability, T/C [41] 80.4% | viability, T/C [42] 96.2% | viability, T/C (second compound 1 µM, first compound 0.949 µM) 88.5% | viability, T/C (second compound 1 µM, first compound 3 µM) 122% | viability, T/C [43] 75.5% | viability, T/C [44] 95.2% | viability, T/C [45] 85.8% | viability, T/C [46] 87.4% | viability, T/C (second compound 3.16 µM, first compound 0.949 µM) 76.2% | viability, T/C (second compound 3.16 µM, first compound 3 µM) 104% | viability, T/C [47] 86% | viability, T/C [48] 68% | viability, T/C [49] 69.4% | viability, T/C [50] 74.9% | viability, T/C (second compound 10 µM, first compound 0.949 µM) 83.5% | viability, T/C (second compound 10 µM, first compound 3 µM) 90.2%

Nc1ncn(C2CC(O)C(CO)S2)c(=O)n1 (stereo not given) + NC1CCC(NC2CC2c2ccccc2)CC1
0.0569 µM: IC50 (second compound 1 µM)
0.123 µM: IC50 (second compound 0.1 µM)
0.0632 µM: IC50 (second compound 10 µM)
0.0739 µM: IC50 (second compound 3.16 µM)
inactive: viability, T/C (second compound 0.1 µM, first compound 0.000949 µM) 110% | viability, T/C (second compound 0.1 µM, first compound 0.003 µM) 85.6% | viability, T/C [31] 113% | viability, T/C [32] 88.1% | viability, T/C [33] 61.4% | viability, T/C [34] 13.1% | viability, T/C (second compound 0.316 µM, first compound 0.000949 µM) 113% | viability, T/C (second compound 0.316 µM, first compound 0.003 µM) 107% | viability, T/C [35] 117% | viability, T/C [36] 93.9% | viability, T/C [37] 39.7% | viability, T/C [38] 11.6% | viability, T/C (second compound 1 µM, first compound 0.000949 µM) 94.3% | viability, T/C (second compound 1 µM, first compound 0.003 µM) 88.6% | viability, T/C [39] 91.2% | viability, T/C [40] 76.8% | viability, T/C [41] 28.6% | viability, T/C [42] 27.4% | viability, T/C (second compound 3.16 µM, first compound 0.000949 µM) 97.4% | viability, T/C (second compound 3.16 µM, first compound 0.003 µM) 99.9% | viability, T/C [43] 92% | viability, T/C [44] 89% | viability, T/C [45] 39.2% | viability, T/C [46] 24.9% | viability, T/C (second compound 10 µM, first compound 0.000949 µM) 86.6% | viability, T/C (second compound 10 µM, first compound 0.003 µM) 82.4% | viability, T/C [47] 86.8% | viability, T/C [48] 82.8% | viability, T/C [49] 32.1% | viability, T/C [50] 23.6%
0.0761 µM: IC50 (second compound 0.316 µM)
